Earlier results in US20100212666A1 (priority 2006, published 2010).

Details: in vivo

## CC(C)c1cccc(C(C)C)c1O [propofol]
  Effect on resting ventilation at 1 C50 for respiratory depression: minimally depresses resting ventilation
  Sedation at 1 C50 for respiratory depression: adequate sedation
